Entries after “also recorded” stand apart in the source; their conditions may differ.
Tests used:
[1] = test system: bacterial consortia originating from rhizospheric soil; assay: C6-HSL inactivation by bacterial consortia enriched from rhizospheric soil; format: cell-based
[2] = test system: Erwinia carotovora subsp. atroseptica 6276; assay: Maceration assay on potato tubers (biocontrol activity of consortia); format: in vivo; conditions: potato tubers infected with mix of Erwinia carotovora 6276 and consortia
Description: FIG. 6: Maceration assay on potato tubers.
The Mannitol-, 6CL-, GCL-, and HTN-consortia were compared for their capacity to inactivated OC8-HSL, the major NAHL produced by the plant pathogen Erwinia carotovora subsp. atroseptica 6276, as well as for their biocontrol activity against this pathogen in potato maceration assay.

[3] = test system: NAHL-degrading bacteria in the nutritive solution; assay: Ratio of NAHL-degrading bacteria in unplanted batches of nutritive solution; format: cell-based; conditions: for percentage of NAHL-degrading bacteria in the nutritive solution: without plants
Method: The non sterile batches (40×60×8 cm) contained 13 L of the nutritive solution Hydrobloom (Cellmax, UK) with Nitrogen at 0.80 g/L, Phosphore at 0.56 g/L and Potassium at 1.48 g/L as major components. The solution was diluted from a concentrated stock solution (×250) with non sterile water from the public water system. One hundred plants of Solanum tuberosum var. Allians, which were recovered from cultures performed under sterile conditions, were placed into holes (3 cm space to each other) of batch covers. Planted batches were placed in the greenhouse (Comité Nord Plants de Pomme de Terre, Bretteville-du-Grand-Caux) under natural light at 10-15° C. (night) and 25-30° C. (day). […] An untreated batch was used as a control. One gram of roots (fresh weight) was resuspended in 10 mL of sterile MgSO4 10 mM, diluted and spread on TSA and King B plates to isolate total cultivable bacteria and fluorescent Pseudomonas, respectively. Three samples were analyzed from each batch at each time D0, D14 and D28; from each sample, thirty isolates from TSA plates and thirty fluorescent isolates from King B plates were individually tested from production and inactivation of NAHL signal.
Bacterial isolates grown in 96-microwell plates were individually tested from production of NAHL with the A. tumefaciens biosensor NT1 (pZNLR4) and the inactivation of the C6-HSL signal, as described previously (d'Angelo-Picard et al. 2004).
Allians was evaluated. The plants were cultivated in vitro under sterile conditions, then placed into batches in a greenhouse at Bretteville-du-Grand-Caux (France) in a non-sterile environment. Especially, a non-sterile nutritive solution was used and served as a source of naturally occurring bacteria. […] The ratio of NAHL-degrading bacteria in the nutritive solution was evaluated before the treatment and 14-day later. This percentage increased from 10±2 to 30±2 in the case of the 6CL-treated batch and from 10±2 to 70±2 in the GCL-treated batch. From the 6CL- and GCL-treated batches, 10 NAHL-degrading bacteria were identified by their rrs sequence: 9 belonged to the Delftia genus, the other one to the Rhodococcus genus.

[4] = test system: acyl-HSL degrading strains of potato rhizosphere; assay: GCL treatment of potato plants in long-term hydroponic culture (FIG. 12); format: in vivo, Solanum tuberosum; set-up: dose or concentration left out as unconfirmed; conditions: 0.4 at D0, D18 and D49; at D28, D49 and D56
Method: The plants were cultivated in hydroponic batches from D0 to D17, then transferred into hydroponic system allowing the long term culture until tuberisation. At each time, three samples (D0 and D7) and four samples (D28, D49 and D56) were analyzed: the number of CFU/g of roots was estimated (B), as well as the percentage of acyl-HSL-producing (C) and acyl-HSL degrading strains. Different letters indicate a significative difference (Student's t-test; α=0.05) between the two conditions, untreated and GCL-treated.
The plants were cultivated in hydroponic batches from D0 to D17, then transferred into hydroponic system allowing the long term culture until tuberisation.

[5] = test system: NAHL-degrading rhizobacteria; assay: Diversity of NAHL-degrading rhizobacteria after 6CL and GCL treatments, rrs sequencing (Table 2); format: in vivo, Solanum tuberosum; conditions: isolates of treated batches
young plants = assay: Sensitivity of young plants to the chemicals; conditions: high concentrations (1 mL/L); data not shown
[6] = 6CL- and GCL-treated batches together, rrs sequence

CCC1CCC(=O)O1 (stereo not drawn) [GCL, gamma-caprolactone]
activity of consortia towards C6-HSL (ranking) [1]: the most active
biocontrol activity of the consortia against E. carotovora 6276 [2]: biocontrol activity was observed; also recorded: showed biocontrol activity
NAHL-degrading bacteria belonging to the Delftia genus (of 10 identified) [3, 6]: 9
NAHL-degrading bacteria belonging to the Rhodococcus genus (of 10 identified) [3, 6]: one
percentage of NAHL-degrading bacteria in the nutritive solution ([3]; 14-day after treatment at 1 mL/L): 70±2%
percentage of NAHL-degrading bacteria in the nutritive solution ([3]; before the treatment): 10±2%
effect on the percentage of acyl-HSL degraders [4]: clear effect
growth of Delftia and Rhodococcus isolates on the compound as a sole carbon source [5]: grew on GCL as a sole carbon source
sensitivity of young plants (young plants): sensitive
